# Experimental data: patent publication US20240194290A1, “HIDDEN ANTIBIOTICS IN THE HUMAN PROTEOME” (THE TRUSTEES OF THE UNIVERSITY OF PENNSYLVANIA, priority 2021, published 2024)
# Ends that are not written are not given here.
# Tests used:
# A. baumannii ATCC19606 = test: Outer membrane permeabilization (NPN uptake) assay; assay type: cell-based, Acinetobacter baumannii; conditions: peptides at MIC, compared to untreated control and polymyxin B
# Procedure: FIG. 3. Synergy, resistance development and mechanism of action studies of encrypted peptides. […] (FIG. 3B) Evolution of resistance by A. baumannii to encrypted peptides derived from the CUB domain (red) or polymyxin B (gray) after 30 days of serial passaging in liquid nutrient broth. Peptides and antibiotics were used at sub-inhibitory concentrations. Cells were passaged every 48 h. […] (FIG. 3D) Cytoplasmic membrane depolarization effects of the encrypted peptides against A. baumannii. (FIG. 3E) NPN assays showing the effect of encrypted peptides derived from the CUB domain and natriuretic peptide on permeabilization of the outer membrane of A. baumannii.
# In order to investigate the mode of action of encrypted peptides against bacterial cells, assays were performed to study their effects on the bacterial membrane. First, the ability of encrypted peptides to disrupt and depolarize the bacterial cytoplasmic membrane was assessed […]. 3,3′-dipropylthiadicarbocyanine iodide [DiSC3(5)] was used, a potentiometric fluorophore that accumulates and aggregates in the cytoplasmic membrane, quenching its fluorescence. Upon imbalances of the cytoplasmic membrane transmembrane potential, the fluorophore migrates to the cytoplasm or the outer environment, generating fluorescence. […]
# Methods: Membrane depolarization assays. The cytoplasmic membrane depolarization activity of the peptides was determined by measurements of fluorescence of the membrane potential-sensitive dye, DiSC3(5). […] Thereafter, the cells (100 μL) were incubated for 15 min with 20 nmol L^−1 of DiSC3(5) until a stable reduction of fluorescence was achieved, indicating the incorporation of the dye into the bacterial membrane. Membrane depolarization was then monitored by observing the change in the fluorescence emission intensity of the membrane potential-sensitive dye, DiSC3(5) (λex=622 nm, λem=670 nm), after the addition of peptides (100 μL solution at MIC values). […] The membrane permeability of the peptides was determined by using the N-phenyl-1-napthylamine (NPN) uptake assay. […]
# P. aeruginosa PAO1 = test: Neutropenic thigh infection mouse model; assay type: in vivo, Pseudomonas aeruginosa; conditions: for anti-infective activity (FIG. 4E): alone, P. aeruginosa PAO1; for decrease of bacterial counts compared to untreated controls: mice, 25 μmol L^−1 intramuscular, three days post-treatment, P. aeruginosa
# Excerpt: FIG. 4. Anti-infective activity and synergistic interactions of encrypted peptides in vivo. (FIG. 4A) Schematic of the skin abscess mouse model used to assess the anti-infective activity of selected encrypted peptides from plasma proteins. […] (FIG. 4C) Mouse weight was monitored throughout the experiment (2 days) to rule out potential toxic effects of the encrypted peptides. (FIG. 4D) Schematic of the neutropenic thigh infection mouse model used to assess the anti-infective activity of selected encrypted peptides from plasma proteins. […] (FIG. 4F) Mouse weight was monitored throughout the experiment (8 days) to rule out potential toxic effects of the encrypted peptides.
# Next, the efficacy of the same encrypted peptides (SCUB1-SKE25 and SCUB3-MLP22) was assessed in monotherapy and in combination therapy in a murine thigh infection model (FIG. 4D). This preclinical model is sensitive, standardized, and widely used for assessing antibiotic translatability^43,44. Briefly, mice were rendered neutropenic by cyclophosphamide treatment prior to intramuscular infection with 10^6 cells mL^−1 of the bacterial pathogens P. aeruginosa and A. baumannii (FIG. 4E). Either a single dose of each encrypted peptide (at 25 μmol L^−1) or their combination (also at 25 μmol L^−1) were delivered to the infected site via intramuscular administration. Three days post-treatment, on average the peptides reduced the bacterial load of P. aeruginosa and A. baumannii by 4 and 2 orders of magnitude, respectively, compared to untreated mice.
# Methods: Skin abscess infection mouse model. A. baumannii ATCC19606 and P. aeruginosa strain PAO1 were used to infect the murine skin. Briefly, bacteria were grown in tryptic soy broth (TSB) medium. Subsequently, cells were washed twice with sterile PBS (pH 7.4, 13,000 rpm for 1 min), and resuspended to a final concentration of 1×10^5 and 1×10^6 CFU/20 μL for A. baumannii and P. aeruginosa, respectively. Female CD-1 mice (six-weeks old) were anesthetized with isoflurane and had their backs shaved and a superficial linear skin abrasion was made with a needle in order to damage the stratum corneum and upper-layer of the epidermis. […] Animals were euthanized and the area of scarified skin was excised two- and four-days post-infection, homogenized using a bead beater for 20 minutes (25 Hz), and 10-fold serially diluted for CFU quantification. […] Prior to each injection, mice were anesthetized with isoflurane and monitored (respiratory rate and pedal reflexes). Next, we monitored the formation of the abscess and euthanized the mice. The infected area was excised three-days post-infection, homogenized using a bead beater for 20 min (25 Hz), and 10-fold serially diluted for CFU quantification. […]
Sequence,outer membrane permeabilization (NPN fluorescence) (A. baumannii ATCC19606),anti-infective activity (FIG. 4E) (P. aeruginosa PAO1),decrease of bacterial counts compared to untreated controls (P. aeruginosa PAO1)
MLPKSFIKLLRSKVSSFLRPYK [SCUB3-MLP22],increased fluorescence,reduced infections,3 orders of magnitude
SKEMFPRSFIKLLRSKVSRFLRPYK [SCUB1-SKE25],increased fluorescence,reduced infections,3 orders of magnitude
